Consider 14 compounds from PubChem BioAssay (NCI).

Common to all, as to assay: NCI-60 cell line screen, 48 h
Assay [1] relates to OVCAR-5 ovarian.
Assay [2] has as its system EKVX NSCLC.
The test system of assay [3] is HCT-15 colon.
The subject of assay [4] is HOP-62 NSCLC.
Assay [5] deals with SF-539 CNS.
Assay [6] concerns UO-31 renal.
Assay [7] relates to DU-145 prostate.
Assay [8] relates to MDA-MB-435.
The subject of assay [9] is A549 NSCLC.
For assay [10], the system named is RXF 393 renal.

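Grown in 96-well plates, cells were treated for 48 hours with each compound at five concentrations. Insufficient inhibition: endpoint recorded as highest concentration tested. Abbreviation: GI50, concentration required for 50% inhibition of growth. At the TGI there is no net growth.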

Turning to `OCC1OC(n2cnc3cc(Cl)c(Cl)cc32)C(O)C1O` (stereo not given), the GI50 in assay [1] was 8.01 µM; in assay [2], 20.8 µM; in assay [3] it was 14.8 µM; in assay [4], 9.13 µM; in assay [5] it was 19.9 µM; in [6] it was 15.8 µM. Besides, the results for the GI50 in assay [7], in assay [8] and in [9] were 17.2 µM, 24 µM and 18.8 µM, respectively. In addition, the TGI in assay [1] was 36.5 µM; in [2], 50.8 µM; in [3], 37.5 µM; in assay [4] it was 35.4 µM; in assay [5], 44.7 µM; in assay [6], 40 µM. Besides, the TGI was over 61.2 µM in assay [7], 82.6 µM in assay [8] and over 72.4 µM in assay [9].

In the case of `Cc1c2cc[n+](C)cc2c(C)c2c1[nH]c1ccc(OC(C)(C)C)cc12`, the TGI in [1], in assay [3], in assay [4], in assay [10], in assay [5] and in [6] was over 100 µM each time. In assay [9], this compound displayed a TGI of over 100 µM.

Regarding `O=Cc1cc2sc(C=O)cc2s1`, the TGI in assay [1], in assay [2], in assay [3], in assay [4], in assay [10] and in assay [5] was over 100 µM each time. Also, the TGI in assay [6] and in [9] was over 100 µM each time.

With `O=S(=O)(O)c1ccc([Se][Se]c2ccc(S(=O)(=O)O)cc2)cc1`, the TGI in assay [1], in [2], in [3], in assay [4], in assay [10] and in assay [5] was over 100 µM each time. For the same compound, the TGI in [6] and in assay [9] was over 100 µM each time.

As to `O=C1/C(=C/c2ccc(C(=O)O)cc2)CNC/C1=C\c1ccc(C(=O)O)cc1`, the TGI in [1], in [3], in assay [4], in assay [10], in [5] and in assay [6] was over 100 µM each time. This compound also yielded a TGI in assay [9] of over 100 µM.

As to `COc1ccc(C2[C@@H](Cl)C(=O)N2c2ccc(OC)cc2)cc1` (stereo not given in full), the TGI in assay [1] was over 100 µM; in assay [2], over 100 µM; in assay [10], over 100 µM; in assay [5], 49.8 µM; in assay [6], over 100 µM; in [9], over 100 µM.

In the case of `C/C(COc1ccccc1)=N\NC(N)=S`, the TGI in [1], in assay [2], in assay [3], in [4], in assay [10] and in [5] was over 100 µM in each case. Also, the TGI in assay [6] and in assay [9] was over 100 µM each time.

With `C=C1[C@H](O)C[C@@H](C(C)C(O)CC=C(C)C)[C@@H](O)[C@@H]2C(C)=CC[C@@H]12` (stereo not given in full), the GI50 in assay [1], in [2], in assay [3], in assay [4], in assay [5] and in assay [6] was over 100 µM throughout. In addition, the GI50 in [7], in assay [8] and in assay [9] was over 100 µM each time. Besides, the TGI in assay [1], in [2], in assay [3], in assay [4], in assay [5] and in [6] was over 100 µM in each case. For the same compound, the TGI in assay [7], in [8] and in [9] was over 100 µM in each case.

In the case of `CCCCCCCC(=O)[O-].N.N.N.N.N.[Co+3].[O-][Cl+3]([O-])([O-])[O-]`, the GI50 in assay [1] is over 100 µM; in assay [2], over 100 µM; in assay [3], over 100 µM; in assay [4] it was over 100 µM; in assay [5], over 100 µM; in assay [6], 90.6 µM. Also, the GI50 in assay [9] was over 100 µM. For the same compound, the TGI in assay [1], in [2], in [3], in assay [4], in assay [5] and in assay [6] was over 100 µM each time. In addition, in assay [9], the TGI was over 100 µM.

Regarding `Oc1ccc(Cl)cc1N=Nc1c(O)ccc2ccccc12`, the TGI in assay [1], in assay [2], in assay [3], in assay [4], in assay [10] and in assay [6] was over 100 µM in each case. The TGI in assay [8] and in assay [9] was over 100 µM throughout.

Consider `NC1=NN(c2ccccc2)C(=O)C1/C(=N\NC(=O)c1cc2ccccc2cc1O)C(=O)Nc1ccc(Cl)c(Cl)c1` (stereo not given), for which the TGI is over 100 µM in assay [1]; 63.6 µM in assay [2]; over 100 µM in [3]; over 100 µM in [4]; over 100 µM in assay [10]; over 100 µM in assay [5]. Moreover, the TGI in assay [6] and in assay [9] was over 100 µM in each case.

Turning to `CC1O[C@@H]2CCCCC(=O)[C@]2(C)[C@H]1C` (stereo not given in full), the TGI in assay [1], in [2], in assay [3], in assay [4], in assay [10] and in [6] was over 100 µM in each case. Further, the TGI in [9] is over 100 µM.

With `CN1C(=O)CC(CC(=O)C2CCCCC2=O)CC1=O` (stereo not given), the TGI in assay [1], in assay [2], in assay [4], in assay [10], in [5] and in assay [6] was over 100 µM in each case. Moreover, the TGI in assay [9] was over 100 µM.

On to `OCC1OC(NO)C(O)C(O)C1O` (stereo not given), for which the TGI in assay [1], in [3], in assay [4], in assay [10], in [5] and in assay [9] was over 100 µM throughout.
